ChEMBL document CHEMBL3774345, “Synthesis of new diarylamides with pyrimidinyl pyridine scaffold and evaluation of their anti-proliferative effect on cancer cell lines” (Bioorg Med Chem Lett, 2016)

Key:
[1] = tested on: SK-MEL-2; assay: Cytotoxicity against human SK-MEL-2 cells assessed as growth inhibition at 10 uM after 24 hrs by SRB assay; format: functional; conditions: SK-MEL-2, 24 h, read-out: GI
[2] = tested on: SR; assay: Cytotoxicity against human SR cells assessed as cell growth at 10^-7 M after 24 hrs by SRB assay; format: functional; conditions: read-out: Activity
[3] = tested on: A549; assay: Cytotoxicity against human A549 cells assessed as cell growth at 10^-5 M after 24 hrs by SRB assay; format: functional; conditions: A549, 24 h, read-out: Activity
[4] = Cytotoxicity against human OVCAR3 cells assessed as cell growth at 10^-6 M after 24 hrs by SRB assay; format: functional; conditions: OVCAR-3, 24 h, read-out: Activity
[5] = tested on: A549; assay: Cytotoxicity against human A549 cells assessed as cell growth at 10^-6 M after 24 hrs by SRB assay; format: functional; conditions: A549, 24 h, read-out: Activity
[6] = tested on: EKVX; assay: Cytotoxicity against human EKVX cells assessed as cell growth at 10^-6 M after 24 hrs by SRB assay; format: functional; conditions: read-out: Activity
[7] = tested on: KM12; assay: Cytotoxicity against human KM12 cells after 24 hrs by SRB assay; format: functional; conditions: KM12, 24 h
[8] = tested on: KM12; assay: Cytotoxicity against human KM12 cells assessed as cell growth at 10^-8 M after 24 hrs by SRB assay; format: functional; conditions: KM12, 24 h, read-out: Activity
[9] = Cytotoxicity against human MOLT4 cells assessed as cell growth at 10^-7 M after 24 hrs by SRB assay; format: functional; conditions: MOLT-4, 24 h, read-out: Activity
[10] = tested on: ACHN; assay: Cytotoxicity against human ACHN cells assessed as cell growth at 10^-5 M after 24 hrs by SRB assay; format: functional; conditions: read-out: Activity
[11] = tested on: NCI-H460; assay: Cytotoxicity against human NCI-H460 cells assessed as cell growth at 10^-8 M after 24 hrs by SRB assay; format: functional; conditions: NCI-H460, 24 h, read-out: Activity
[12] = Cytotoxicity against human SKOV3 cells assessed as cell growth at 10^-6 M after 24 hrs by SRB assay; format: functional; conditions: SK-OV-3, 24 h, read-out: Activity
[13] = tested on: NCI-H23; assay: Cytotoxicity against human NCI-H23 cells assessed as cell growth at 10^-4 M after 24 hrs by SRB assay; format: functional; conditions: NCI-H23, 24 h, read-out: Activity
[14] = Cytotoxicity against human DU145 cells assessed as cell growth at 10^-4 M after 24 hrs by SRB assay; format: functional; conditions: DU-145, 24 h, read-out: Activity
[15] = Cytotoxicity against human UACC62 cells after 24 hrs by SRB assay; format: functional, cell-based; conditions: UACC-62, 24 h
[16] = tested on: 786-0; assay: Cytotoxicity against human 786-0 cells assessed as cell growth at 10^-6 M after 24 hrs by SRB assay; format: functional; conditions: 786-0, 24 h, read-out: Activity
[17] = Cytotoxicity against human SF268 cells assessed as cell growth at 10^-8 M after 24 hrs by SRB assay; format: functional; conditions: SF-268, 24 h, read-out: Activity
[18] = Cytotoxicity against human UACC62 cells assessed as cell growth at 10^-7 M after 24 hrs by SRB assay; format: functional; conditions: UACC-62, 24 h, read-out: Activity
[19] = Cytotoxicity against human IGROV1 cells assessed as cell growth at 10^-7 M after 24 hrs by SRB assay; format: functional; conditions: IGROV-1, 24 h, read-out: Activity
[20] = Cytotoxicity against human Hs 578T cells assessed as cell growth at 10^-5 M after 24 hrs by SRB assay; format: functional; conditions: read-out: Activity
[21] = Cytotoxicity against human UO31 cells assessed as cell growth at 10^-5 M after 24 hrs by SRB assay; format: functional; conditions: UO-31, 24 h, read-out: Activity
[22] = Cytotoxicity against human HCT116 cells assessed as cell growth at 10^-6 M after 24 hrs by SRB assay; format: functional; conditions: HCT-116, 24 h, read-out: Activity
[23] = tested on: ACHN; assay: Cytotoxicity against human ACHN cells assessed as cell growth at 10^-4 M after 24 hrs by SRB assay; format: functional; conditions: read-out: Activity
[24] = Cytotoxicity against human SNB75 cells assessed as cell growth at 10^-7 M after 24 hrs by SRB assay; format: functional; conditions: SNB-75, 24 h, read-out: Activity
[25] = Cytotoxicity against human OVCAR5 cells assessed as cell growth at 10^-6 M after 24 hrs by SRB assay; format: functional; conditions: OVCAR-5, 24 h, read-out: Activity
[26] = Cytotoxicity against human Caki1 cells assessed as cell growth at 10^-8 M after 24 hrs by SRB assay; format: functional; conditions: CAKI-1, 24 h, read-out: Activity
[27] = Cytotoxicity against human SNB19 cells assessed as cell growth at 10^-6 M after 24 hrs by SRB assay; format: functional; conditions: SNB-19, 24 h, read-out: Activity
[28] = tested on: MDA-MB-435; assay: Cytotoxicity against human MDA-MB-435 cells assessed as cell growth at 10^-6 M after 24 hrs by SRB assay; format: functional; conditions: MDA-MB-435, 24 h, read-out: Activity
[29] = Cytotoxicity against human COLO205 cells assessed as cell growth at 10^-4 M after 24 hrs by SRB assay; format: functional; conditions: COLO 205, 24 h, read-out: Activity
[30] = tested on: NCI-H23; assay: Cytotoxicity against human NCI-H23 cells assessed as cell growth at 10^-5 M after 24 hrs by SRB assay; format: functional; conditions: NCI-H23, 24 h, read-out: Activity
[31] = Cytotoxicity against human Caki1 cells assessed as cell growth at 10^-7 M after 24 hrs by SRB assay; format: functional; conditions: CAKI-1, 24 h, read-out: Activity
[32] = Cytotoxicity against human OVCAR8 cells assessed as cell growth at 10^-8 M after 24 hrs by SRB assay; format: functional; conditions: OVCAR-8, 24 h, read-out: Activity
[33] = Cytotoxicity against human IGROV1 cells assessed as cell growth at 10^-6 M after 24 hrs by SRB assay; format: functional; conditions: IGROV-1, 24 h, read-out: Activity
[34] = tested on: MDA-MB-231; assay: Cytotoxicity against human MDA-MB-231 cells assessed as cell growth at 10^-8 M after 24 hrs by SRB assay; format: functional; conditions: MDA-MB-231, 24 h, read-out: Activity
[35] = Cytotoxicity against human OVCAR8 cells assessed as cell growth at 10^-6 M after 24 hrs by SRB assay; format: functional; conditions: OVCAR-8, 24 h, read-out: Activity
[36] = Cytotoxicity against human OVCAR5 cells after 24 hrs by SRB assay; format: functional; conditions: OVCAR-5, 24 h
[37] = tested on: HT-29; assay: Cytotoxicity against human HT-29 cells assessed as cell growth at 10^-8 M after 24 hrs by SRB assay; format: functional; conditions: HT-29, 24 h, read-out: Activity
[38] = tested on: M14; assay: Cytotoxicity against human M14 cells assessed as cell growth at 10^-8 M after 24 hrs by SRB assay; format: functional; conditions: M14, 24 h, read-out: Activity
[39] = read-out: LC50 (the source's name)
[40] = read-out: pLC50 (the source's name) (converted)

## COCCCNc1nc(NC(=O)c2cc(OC)cc(OC)c2)cc(-c2cccnc2)n1
[1]
  inhibition of growth at 10 µM: 21.2%

## O=C(Nc1cc(-c2cccnc2)nc(NCCCN2CCOCC2)n1)c1cc(Br)cc(C(F)(F)F)c1
[2]
  growth at 0.1 µM: 106%
[3]
  growth at 10 µM: 51%
[4]
  growth at 1 µM: 100%
[5]
  growth at 1 µM: 119%
[6]
  growth at 1 µM: 76%
[7]; read-out: GI50
  GI50: 3.62 µM
[7]; [39]
  CC50: 41 µM
[7]; read-out: TGI
  TGI: 13.6 µM
[7]; read-out: pGI50 (converted)
  GI50: 3.63 µM
[7]; [40]
  CC50: 40.7 µM
[7]; read-out: pTGI (converted)
  TGI: 13.5 µM
[8]
  growth at 0.01 µM: 99%
[9]
  growth at 0.1 µM: 95%
[10]
  growth at 10 µM: 5%
[11]
  growth at 0.01 µM: 99%
[12]
  growth at 1 µM: 97%
[13]
  growth at 100 µM: -85%
[14]
  growth at 100 µM: -100%
[15]
  GI50: 1.95 µM
[15]; [39]
  CC50: 9.92 µM
[15]; read-out: TGI
  TGI: 4.38 µM
[15]; [40]
  CC50: 10 µM
[15]; read-out: pTGI (converted)
  TGI: 4.37 µM
[16]
  growth at 1 µM: 81%
[17]
  growth at 0.01 µM: 97%
[18]
  growth at 0.1 µM: 90%
[19]
  growth at 0.1 µM: 108%
[20]
  growth at 10 µM: -7%
[21]
  growth at 10 µM: -61%
[22]
  growth at 1 µM: 94%
[23]
  growth at 100 µM: -79%
[24]
  growth at 0.1 µM: 84%
[25]
  growth at 1 µM: 92%
[26]
  growth at 0.01 µM: 99%
[27]
  growth at 1 µM: 105%
[28]
  growth at 1 µM: 90%
[29]
  growth at 100 µM: -88%
[30]
  growth at 10 µM: 18%
[31]
  growth at 0.1 µM: 90%
[32]
  growth at 0.01 µM: 106%
[33]
  growth at 1 µM: 92%
[34]
  growth at 0.01 µM: 90%
[35]
  growth at 1 µM: 102%
[36]; read-out: GI50
  GI50: 6.33 µM
[36]; [39]
  CC50: 69.1 µM
[36]; read-out: TGI
  TGI: 23.5 µM
[36]; read-out: pGI50 (converted)
  GI50: 6.31 µM
[36]; [40]
  CC50: 69.2 µM
[36]; read-out: pTGI (converted)
  TGI: 23.4 µM
[37]
  growth at 0.01 µM: 100%
[38]
  growth at 0.01 µM: 94%
